Tests used:
[1] = tested on: PANC-1; experiment: Cell viability (CellTiter-Glo), PANC-1; format: cell-based; details: Homo sapiens; PANC-1 cell line, 3-4 days of culture
Experimental: (§1) Cell viability was detected using the Promega CellTiter-Glo kit, the kit reflected cell viability by directly measuring intracellular ATP content. The inhibitory effect (IC50 value) of Gboxin, a mitochondrial oxidative phosphorylation pathway inhibitor, on different tumor cell lines was tested in the Example. The name, source, and culture condition of each tumor cell line were as follows:
Cell line PANC-1 (ATCC, No. CRL-1469) was cultured in 10% fetal bovine serum-containing DMEM medium (+P/S).
(§2) The above tumor cells were cultured in the relevant medium (+P/S), and incubated for 3 h, then the gradient diluted Gboxin was added, and IC50 (50% inhibiting concentration) was measured after 3-4 days of culture.

[2] = tested on: Daoy; experiment: Cell viability (CellTiter-Glo), Daoy; format: cell-based; details: Homo sapiens; Daoy cell line, 3-4 days of culture
Experimental: as §1
Cell line Daoy (ATCC, No. HTB-186) was cultured in 10% fetal bovine serum-containing EMEM medium (+P/S).
as §2

[3] = tested on: NCI-H82; experiment: Cell viability (CellTiter-Glo), NCI-H82; format: cell-based; details: Homo sapiens; NCI-H82 cell line, 3-4 days of culture
Experimental: as §1, with “follows: Cell line NCI-H82 (ATCC, No. HTB-175) was cultured in 10% fetal bovine serum-containing RPMI1640 medium (+P/S). […] Cell viability was detected using the Promega CellTiter-Glo kit, the kit reflected cell viability by directly measuring intracellular ATP content.” for “follows:”

[4] = tested on: mTOR pathway (p-S6); experiment: Western Blot of p-S6 protein in tumor cells after inhibitor treatment; format: cell-based, human; details: 1 μM or 3 μM Gboxin, 1 μM Oligomycin A, 12 h; for activity of mTOR pathway (p-S6): FIG. 3; for content of p-S6 protein (activity of mTOR pathway): FIG. 2
Experimental: The inhibition of mitochondrial oxidative phosphorylation pathway could cause the activation of ATF4 stress pathway and the decrease of mTOR pathway activity, the activity of the mTOR pathway was reflected by the expression level of phosphorylated ribosomal protein S6 (ie, p-S6).
(§3) The tumor cells NCI-H82, G-401 and WSU-DLCL2 were cultured in the relevant 10% FBS-containing medium (+p/s), and incubated overnight, then 1 μM Gboxin, 3 μM Gboxin or 1 μM Oligomycin A as shown in FIG. 2 was added. After 12 h of incubation, the content of ATF4 and p-S6 protein was detected using Western Blot, the experiment result was shown in FIG. 2.
as §3, with “The cell lines SF126, CFPAC-1” for “The tumor cells NCI-H82, G-401”, “and 786-O” for “and WSU-DLCL2”, “FIG. 3” for “FIG. 2”, “FIG. 3.” for “FIG. 2.”

[5] = tested on: NCI-H1048; experiment: Cell viability (CellTiter-Glo), NCI-H1048; format: cell-based; details: Homo sapiens; NCI-H1048 cell line, 3-4 days of culture
Experimental: as §1
Cell line NCI-H1048 (ATCC, No. CRL-5853) was cultured in 5% fetal bovine serum-containing HITES medium (+P/S).
as §2

SMILES: CCc1n(CC(=O)O[C@@H]2C[C@H](C)CC[C@H]2C(C)C)c2ccccc2[n+]1C.[Cl-] [Gboxin]
- IC50 [1]: 12 µM
- IC50 [2]: 9.72 µM
- IC50 [3]: 0.398 µM
- activity of mTOR pathway (p-S6) ([4]; 786-O cells): no significant changes
- activity of mTOR pathway (p-S6) ([4]; CFPAC-1 cells): no significant changes
- content of p-S6 protein (activity of mTOR pathway) ([4]; G-401 cells): decreased
- content of p-S6 protein (activity of mTOR pathway) ([4]; NCI-H82 cells): decreased
- activity of mTOR pathway (p-S6) ([4]; SF126 cells): no significant changes
- content of p-S6 protein (activity of mTOR pathway) ([4]; WSU-DLCL2 cells): decreased
- IC50 [5]: 4.34 µM
